Results taken from US20250186436A1 (4E Therapeutics, Inc., priority 2021, published 2025).
Values joined by “and” are separate entries in the source; they are usually repeats but may differ in a detail not shown here. Identical values can stand only once. Like-named read-outs stand apart in the source and are kept apart here.

Assay: PK study in male Sprague-Dawley rats dosed once per day for five days, PO 10 mg/kg, 0.5% HPMC (Example 7)
Assay type: in vivo
Conditions: 0.5% HPMC suspension
Method: Example 7. PK study of 4ET-03-053 in male Sprague-Dawley rats dosed once per day for five days (P0; 10 mg/kg; 0.5%0HPMC aqueous suspension)
Table 21 provides plasma and brain concentrations at 24 hr after the last dose of five daily P0 doses of 4ET-03-053.

[1] = Sprague-Dawley rats, day five of daily PO 10 mg/kg, individual animals, 10 mg/kg
[2] = Sprague-Dawley rats, day five of daily PO 10 mg/kg, mean (n = 3)
[3] = male Sprague-Dawley rats, single PO 10 mg/kg dose, individual animals, 10 mg/kg
[4] = male Sprague-Dawley rats, single PO 10 mg/kg dose, mean (n = 3)
[5] = male, Sprague-Dawley, rat, in vivo, po, 10 mg/kg, Sprague-Dawley rats, day five of daily PO 10 mg/kg, individual animals
[6] = male, Sprague-Dawley, rat, in vivo, po, 10 mg/kg, Sprague-Dawley rats, day five of daily PO 10 mg/kg, mean (n = 3)
[7] = male, Sprague-Dawley, rat, in vivo, po, 10 mg/kg, male Sprague-Dawley rats, single PO 10 mg/kg dose, individual animals
[8] = male, Sprague-Dawley, rat, in vivo, po, 10 mg/kg, male Sprague-Dawley rats, single PO 10 mg/kg dose, mean (n = 3)

SMILES: Cc1cc(Nc2cc(N)ncn2)c(=O)n2c1C(=O)NC21CCC2(CC2)CC1 [4ET-03-053, 6″-((6-Aminopyrimidin-4-yl)amino)-8″-methyl-2″H-dispiro[cyclopropane-1,1′-cyclohexane-4′,3″-imidazo[1,5-a]pyridine]-1″,5″-dione]
- AUCinf [1]: 318.204 µg·h/mL and 347.92 µg·h/mL
- AUCinf/D [1]: 25862 kg·h/kL and 31820 kg·h/kL and 34792 kg·h/kL
- AUClast [1]: 291.659 µg·h/mL and 320.41 µg·h/mL
- Clast [1]: 2390 ng/mL and 2740 ng/mL
- Cmax [1]: 18800 ng/mL
- Cmax/D [1]: 2460 kg/kL and 1880 kg/kL and 2510 kg/kL
- F [1]: 50.2% and 61.8% and 67.6%
- MRTinf [1]: 9.17 h and 9.18 h
- t1/2 [1]: 7.19 h and 6.73 h
- AUCinf/D [2]: 30825 kg·h/kL
- Cmax/D [2]: 2283 kg/kL
- F [2]: 59.9%
- time to peak plasma concentration (Sprague-Dawley rats, following five daily PO doses of 10 mg/kg): ≤ 2 h
- AUCinf [3]: 308.776 µg·h/mL and 251.304 µg·h/mL
- AUCinf/D [3]: 25525 kg·h/kL and 30878 kg·h/kL and 25130 kg·h/kL
- AUClast [3]: 296.855 µg·h/mL and 240.643 µg·h/mL
- Clast [3]: 1120 ng/mL and 1560 ng/mL
- Cmax [3]: 19900 ng/mL and 21800 ng/mL
- Cmax/D [3]: 2510 kg/kL and 1990 kg/kL and 2180 kg/kL
- F [3]: 49.6% and 60.0% and 48.8%
- MRTinf [3]: 7.59 h and 7.51 h
- AUCinf/D [4]: 27178 kg·h/kL
- Cmax/D [4]: 2227 kg/kL
- F [4]: 52.8%
- AUC(0-t) [5]: 234 µg·h/mL
- MRT inf [5]: 9.79 h
- Tmax [5]: 2 h
- AUC(0-inf) (male, Sprague-Dawley, rat, in vivo, po, 10 mg/kg, Sprague-Dawley rats, day five of daily PO 10 mg/kg, individual animals, read-out: AUCinf): 259 µg·h/mL
- concentration at 24 h (male, Sprague-Dawley, rat, in vivo, po, 10 mg/kg, Sprague-Dawley rats, day five of daily PO 10 mg/kg, individual animals, read-out: Clast): 2880 ng/mL
- Cmax (male, Sprague-Dawley, rat, in vivo, po, 10 mg/kg, Sprague-Dawley rats, day five of daily PO 10 mg/kg, individual animals, read-out: Cmax): 24600 ng/mL
- half-life (male, Sprague-Dawley, rat, in vivo, po, 10 mg/kg, Sprague-Dawley rats, day five of daily PO 10 mg/kg, individual animals, read-out: t1/2 (converted)): 6.54 h
- AUC(0-t) [6]: 282 µg·h/mL
- MRT inf [6]: 9.38 h
- Tmax [6]: 1.67 h
- AUC(0-inf) (male, Sprague-Dawley, rat, in vivo, po, 10 mg/kg, Sprague-Dawley rats, day five of daily PO 10 mg/kg, mean (n = 3), read-out: AUCinf): 308 µg·h/mL
- concentration at 24 h (male, Sprague-Dawley, rat, in vivo, po, 10 mg/kg, Sprague-Dawley rats, day five of daily PO 10 mg/kg, mean (n = 3), read-out: Clast): 2670 ng/mL
- Cmax (male, Sprague-Dawley, rat, in vivo, po, 10 mg/kg, Sprague-Dawley rats, day five of daily PO 10 mg/kg, mean (n = 3), read-out: Cmax): 22800 ng/mL
- half-life (male, Sprague-Dawley, rat, in vivo, po, 10 mg/kg, Sprague-Dawley rats, day five of daily PO 10 mg/kg, mean (n = 3), read-out: t1/2 (converted)): 6.82 h
- bioavailability (male, Sprague-Dawley, rat, in vivo, po, 10 mg/kg, Sprague-Dawley rats, following five daily PO doses of 10 mg/kg): 59.9%
- concentration at 24 h (male, Sprague-Dawley, rat, in vivo, po, 10 mg/kg, Sprague-Dawley rats, following five daily PO doses of 10 mg/kg, at 24 hr, read-out: last measurable concentration): 2670 ng/mL
- Cmax (male, Sprague-Dawley, rat, in vivo, po, 10 mg/kg, Sprague-Dawley rats, following five daily PO doses of 10 mg/kg, read-out: peak plasma concentration (Cmax)): 22800 ng/mL
- half-life (male, Sprague-Dawley, rat, in vivo, po, 10 mg/kg, Sprague-Dawley rats, following five daily PO doses of 10 mg/kg, read-out: terminal half-life (converted)): 6.82 h
- AUC(0-inf) (male, Sprague-Dawley, rat, in vivo, po, 10 mg/kg, Sprague-Dawley rats, following five daily PO doses of 10 mg/kg, read-out: total systemic exposure (AUCinf)): 308 µg·h/mL
- AUC(0-t) [7]: 247 µg·h/mL
- MRT inf [7]: 7.18 h
- Tmax [7]: 2 h
- AUC(0-inf) (male, Sprague-Dawley, rat, in vivo, po, 10 mg/kg, male Sprague-Dawley rats, single PO 10 mg/kg dose, individual animals, read-out: AUCinf): 255 µg·h/mL
- concentration at 24 h (male, Sprague-Dawley, rat, in vivo, po, 10 mg/kg, male Sprague-Dawley rats, single PO 10 mg/kg dose, individual animals, read-out: Clast): 1330 ng/mL
- Cmax (male, Sprague-Dawley, rat, in vivo, po, 10 mg/kg, male Sprague-Dawley rats, single PO 10 mg/kg dose, individual animals, read-out: Cmax): 25100 ng/mL
- half-life (male, Sprague-Dawley, rat, in vivo, po, 10 mg/kg, male Sprague-Dawley rats, single PO 10 mg/kg dose, individual animals, read-out: t1/2 (converted)): 5.38 h
- AUC(0-t) [8]: 262 µg·h/mL
- Tmax [8]: 1.67 h
- AUC(0-inf) (male, Sprague-Dawley, rat, in vivo, po, 10 mg/kg, male Sprague-Dawley rats, single PO 10 mg/kg dose, mean (n = 3), read-out: AUCinf): 272 µg·h/mL
- concentration at 24 h (male, Sprague-Dawley, rat, in vivo, po, 10 mg/kg, male Sprague-Dawley rats, single PO 10 mg/kg dose, mean (n = 3), read-out: Clast): 1340 ng/mL
- Cmax (male, Sprague-Dawley, rat, in vivo, po, 10 mg/kg, male Sprague-Dawley rats, single PO 10 mg/kg dose, mean (n = 3), read-out: Cmax): 22300 ng/mL
- half-life (male, Sprague-Dawley, rat, in vivo, po, 10 mg/kg, male Sprague-Dawley rats, single PO 10 mg/kg dose, mean (n = 3), read-out: t1/2 (converted)): 5.11 h
- bioavailability (male, Sprague-Dawley, rat, in vivo, po, 10 mg/kg, male Sprague-Dawley rats, single PO 10 mg/kg): 52.8%
- concentration at 24 h (male, Sprague-Dawley, rat, in vivo, po, 10 mg/kg, male Sprague-Dawley rats, single PO 10 mg/kg, at 24 hr, read-out: last measurable concentration): 1340 ng/mL
- Cmax (male, Sprague-Dawley, rat, in vivo, po, 10 mg/kg, male Sprague-Dawley rats, single PO 10 mg/kg, read-out: peak plasma concentration (Cmax)): 22300 ng/mL
- half-life (male, Sprague-Dawley, rat, in vivo, po, 10 mg/kg, male Sprague-Dawley rats, single PO 10 mg/kg, read-out: terminal half-life (t1/2) (converted)): 5.11 h
